Source: patent US20170137880A1, “METHOD FOR TREATING DEPRESSION AND MAJOR DEPRESSIVE DISORDER” (Takeda Pharmaceutical Company Limited, priority 2014, published 2017)

What was measured:
Format in all cases: in vivo, human
adult MDD patients = assay: Cognition, Cognitive and Physical Functioning Questionnaire (CPFQ); conditions: for Cognition (CPFQ): 7-variant model, adult MDD patients
Description: According to the CDC, cognitive impairment is when a person has trouble remembering, learning new things, concentrating, or making decisions that affect their everyday life. Cognitive impairment ranges from mild to severe. With mild impairment, people may begin to notice changes in cognitive functions, but still be able to do their everyday activities. Severe levels of impairment can lead to losing the ability to understand the meaning or importance of something and the ability to talk or write, resulting in the inability to live independently. Cognitive ability can be assessed by, for example, Massachusetts General Hospital Cognitive and Physical Functioning Questionnaire (see, e.g., Fava et al., J. Clin. Psychiatry, 67:11 (2006)) and/or the Digit Symbol Substitution Test (DSST) (see Mahableshwarker et al., Neuropsychopharmacology, in press 2015).
In FIG. 13, the term “SNP7=1” corresponds to patients in the subgroup identified by the 7-variant model; the term “SNP7=0” corresponds to patients not in the subgroup.

MDD individuals = assay: Treatment effect by MADRS and HAM-A scores in genetic subgroups; conditions: for Treatment-specific effect (MADRS scores): 5-variant and 7-variant models
Description: (§1) Multicenter, randomized, double-blind, parallel-group, placebo-controlled, drug-referenced, fixed-dose studies were conducted to evaluate the efficacy and safety of vortioxetine (10, 15 and 20 mg/Day) in the acute treatment of adult patients with MDD. A total of 595 individuals meeting the diagnostic criteria from the DSM-IV-TR for recurrent MDD were included in the studies. The current major depressive disorder for each individual was confirmed by the Structured Clinical Interview for DSM Disorders (SCID). […] Individuals were treated with 10, 15 or 20 mg vortioxetine, or a different drug, or a placebo daily for 8 weeks.
(§2) Subjects were seen weekly during the first 2 weeks of treatment and then every 2 weeks up to the end of the 8-week treatment period. The primary outcome measure was change from baseline in MADRS total score after 8 Weeks of treatment. The Montgomery Asberg Depression Rating Scale (MADRS) is a depression rating scale consisting of 10 items, each rated 0 (no symptom) to 6 (severe symptom). The 10 items represent the core symptoms of depressive illness. The rating is based on a clinical interview with the patient, moving from broadly phrased questions about symptoms to more detailed ones, which allow a precise rating of severity, covering the most recent 7 days. Total score is from 0 to 60, with a higher the score being the more severe.
(§3) A composite score (or genetic score) was calculated via penalized regression using a set of focused genomic regions. The cutoff point of the genetic score that maximizes treatment specific effect was then identified. Statistical significance (via a parametric bootstrap approach) of the treatment effect for the subgroup defined by the optimal cutpoint was then determined.
A least square means plot of MADRS scores obtained during treatment with 10 mg vortioxetine is shown in FIG. 12B using the 7-variant model. […]

adult patients with MDD = assay: Response rate by treatment and genetic subgroup (responders: 50% decrease in MADRS total score from baseline at week 8); conditions: for Response rate: 20 mg/day, 8 weeks; for No Response (number of subjects) / Response (number of subjects): Lu 20 mg only
Description: as §1, §2
Secondary outcome measures included the proportion of responders at week 8 (responders defined as a 50% decrease in MADRS total score from baseline); a change from baseline in MADRS total score at week 8; and a change in clinical status using CGI-I score at week 8. The Clinical Global Impression—Global Improvement (CGI-I) scale is a 7-point scale rated from 1 (very much improved) to 7 (very much worse). The investigator rated the patient's overall improvement relative to baseline, whether or not, in the opinion of the investigator, this was entirely due to the drug treatment.
Nucleic acid samples from the individuals were run on an Illumina™ HumanOmni5EXOME whole genome bead-chip array according to the manufacturer's protocol. The raw dataset of 595 samples times 4,641,218 variants was narrowed to 473 samples times 3,923,897 variants following quality control (QC).
as §3

Structure (SMILES): Br.Cc1ccc(Sc2ccccc2N2CCNCC2)c(C)c1 [vortioxetine, 1-[2-(2,4-Dimethyl-phenylsulfanyl)-phenyl]-piperazine, hydrobromide]
- Cognition (CPFQ) (adult MDD patients; 10 mg/day): evidence for improved cognition
- Cognition (CPFQ) (adult MDD patients; 20 mg/day): evidence for improved cognition
- Cognition (adult MDD patients; individuals with COL26A1 rs4045 and a CACNA1C variant, 20 mg/day for 8 weeks): improved cognition
- Treatment-specific effect (MADRS scores) (MDD individuals; 10 mg): evidence for a treatment-specific effect
- Treatment-specific effect (MADRS scores) (MDD individuals; 20 mg): evidence for a treatment-specific effect
- Response to treatment as measured by MADRS and HAM-A scores (MDD individuals; MDD individuals with rs4045 and a CACNA1C variant): significantly enhanced response
- Response rate (adult patients with MDD; COL26A1 rs4045 and a CACNA1C variant positive): 14/17
- Response rate (adult patients with MDD; Total): 40/120
- Response rate (adult patients with MDD; Variant negative): 6/25
- Response rate (adult patients with MDD; subgroup N/A): 28/78
- No Response (number of subjects) (adult patients with MDD; <NA>): 50
- Response (number of subjects) (adult patients with MDD; <NA>): 28
- No Response (number of subjects) (adult patients with MDD; In the Subgroup): 3
- Response (number of subjects) (adult patients with MDD; In the Subgroup): 14
- No Response (number of subjects) (adult patients with MDD; Not in Subgroup): 19
- Response (number of subjects) (adult patients with MDD; Not in Subgroup): 6
